# Patent publication US20250042857A1, “SOS1 Inhibitor With Pyrido-Fused Six-Membered Ring Structure” (HAIHE BIOPHARMA CO., LTD., priority 2021, published 2025)
# Target: KRAS-G12C/SOS1 (Homo sapiens (Human), UniProt Q07889)
# Assay: Detection of inhibitory effects of compounds on KRAS-G12C/SOS1 (KRASG12C/SOS binding kit, HTRF)
# Settings: Em665/620, read-out: IC50, inhibitory activity on interaction of KRAS-G12C/SOS1
# Description: Experimental objective: The inhibitory effects of the tested compounds on KRAS-G12C/SOS1 were detected. IC50 was used to characterize the inhibitory ability of the compounds on the KRAS-G12C/SOS1. The lower IC50 value indicated the stronger inhibitory ability. BI-3406 was used as a positive control compound.
# Experimental reagents: KRASG12C/SOS binding kit (Cisbio, cat. 63ADK000CB16PEG); DMSO (Sigma, cat. D8418-1L); and 384-well white plate (PerkinElmer, cat. 6007290)
# • 1. Preparation of compounds: the test compounds were dissolved in 100% DMSO to obtain 10 mM stock solutions and the stock solutions were stored in a refrigerator in the dark. • 2. Kinase reaction process:
# Preparation of compounds: the test compounds had the concentration of 5,000 nM and diluted in a 384-well plate into a 100% DMSO solution at the 200-fold final concentration, and the compounds were diluted 3-fold with 10 concentrations. 50 nL of the compounds at the 200-fold final concentration were transferred to the plate of interest, the 384-well plate, using a dispenser Echo 550. 50 nL of 100% DMSO was added to each negative control well and positive control well.
# A Tag1-SOS1 solution at the 4-fold final concentration was prepared using a diluent buffer.
# 2.5 μL of the Tag1-SOS1 solution at the 4-fold final concentration was added to the 384-well plate.
# A Tag2-KRAS-G12C solution at the 4-fold final concentration was prepared using the diluent buffer.
# 2.5 μL of the Tag2-KRAS-G12C solution at the 4-fold final concentration was respectively added into compound wells and the positive control wells; and 2.5 μL of the diluent buffer was added to the negative control wells.
# The 384-well plate was centrifuged at 1,000 rpm for 30 seconds, shaken and mixed uniformly, and incubated at room temperature for 15 minutes.
# An Anti-Tag1-TB3+ solution at the 1-fold final concentration and an Anti-Tag2-XL665 solution at the 1-fold final concentration were prepared using a detection buffer, the two solutions were mixed uniformly to obtain a Mix solution, and 5 μL of the Mix solution was added into each well.
# The 384-well plate was centrifuged at 1,000 rpm for 30 seconds, shaken and mixed uniformly, and incubated at 4° C. for 120 minutes.
# Em665/620 was read using an Envision microplate reader.
# Inhibition %=(Max signal−Compound signal)/(Max signal−Min signal)×100 Calculation formula • wherein the Min signal was the mean value of the negative control wells, and the Max signal was the mean value of the positive control wells.
# A dose-response curve was fitted using the log value of the concentration as an X axis and the percentage of the inhibitory rate as a Y axis by using the log(inhibitor) vs. response-variable slope of an analytical software GraphPadPrism5, thereby obtaining the IC50 value of each compound on an enzyme activity.
# Chain of KRAS-G12C/SOS1 (Q07889 whole entry, stated change not applied): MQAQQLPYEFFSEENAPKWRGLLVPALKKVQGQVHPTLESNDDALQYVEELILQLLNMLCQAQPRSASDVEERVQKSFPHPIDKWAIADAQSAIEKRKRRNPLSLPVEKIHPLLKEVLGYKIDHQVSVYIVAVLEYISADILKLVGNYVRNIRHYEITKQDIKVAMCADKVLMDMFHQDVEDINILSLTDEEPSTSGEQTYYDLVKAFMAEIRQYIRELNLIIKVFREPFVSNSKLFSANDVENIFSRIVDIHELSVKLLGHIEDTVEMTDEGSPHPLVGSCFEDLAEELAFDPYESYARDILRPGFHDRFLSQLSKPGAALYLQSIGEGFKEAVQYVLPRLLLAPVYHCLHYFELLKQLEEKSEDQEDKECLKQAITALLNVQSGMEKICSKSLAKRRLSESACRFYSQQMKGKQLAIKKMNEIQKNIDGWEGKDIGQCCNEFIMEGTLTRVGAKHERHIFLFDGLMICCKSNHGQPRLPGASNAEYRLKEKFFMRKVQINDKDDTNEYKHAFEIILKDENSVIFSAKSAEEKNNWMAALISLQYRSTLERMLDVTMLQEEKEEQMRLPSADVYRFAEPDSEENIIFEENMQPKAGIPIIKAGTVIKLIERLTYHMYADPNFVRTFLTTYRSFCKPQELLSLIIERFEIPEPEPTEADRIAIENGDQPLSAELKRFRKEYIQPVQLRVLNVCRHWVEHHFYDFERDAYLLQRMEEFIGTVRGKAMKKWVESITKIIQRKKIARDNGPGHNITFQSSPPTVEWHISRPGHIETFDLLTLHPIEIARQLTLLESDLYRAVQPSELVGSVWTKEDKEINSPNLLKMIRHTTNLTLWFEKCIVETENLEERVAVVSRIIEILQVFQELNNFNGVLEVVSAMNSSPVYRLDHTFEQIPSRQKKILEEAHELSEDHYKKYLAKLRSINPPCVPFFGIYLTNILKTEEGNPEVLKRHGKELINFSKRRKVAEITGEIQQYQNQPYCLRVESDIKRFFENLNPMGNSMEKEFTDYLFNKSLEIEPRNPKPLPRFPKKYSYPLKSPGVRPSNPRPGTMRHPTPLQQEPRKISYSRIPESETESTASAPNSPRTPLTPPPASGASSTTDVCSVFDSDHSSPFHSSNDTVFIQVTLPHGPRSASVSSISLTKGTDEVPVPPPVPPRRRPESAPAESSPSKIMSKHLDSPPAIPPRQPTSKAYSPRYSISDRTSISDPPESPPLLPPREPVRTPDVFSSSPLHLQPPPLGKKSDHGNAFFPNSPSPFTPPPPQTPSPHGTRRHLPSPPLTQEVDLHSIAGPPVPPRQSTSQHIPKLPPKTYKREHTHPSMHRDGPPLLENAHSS
row,Compound,IC50
1,"Cc1c([C@@H](C)Nc2ccnc3cnc(C4(O)CCC(O)CC4)cc23)cccc1C(F)(F)F (single isomer, unassigned) [Compound B-84-P1]",100 to 500 nM
2,"Cc1c([C@@H](C)Nc2ccnc3cnc(C4(O)CCC(O)CC4)cc23)cccc1C(F)(F)F (single isomer, unassigned) [Compound B-84-P2]",100 to 500 nM
3,"Cc1c(C(F)F)cccc1[C@@H](C)Nc1ccnc2cnc(C3(O)CCC(O)CC3)cc12 (single isomer, unassigned) [Compound B-86-P1]",100 to 500 nM
4,"Cc1c(C(F)F)cccc1[C@@H](C)Nc1ccnc2cnc(C3(O)CCC(O)CC3)cc12 (single isomer, unassigned) [Compound B-86-P2]",100 to 500 nM
5,"Cc1cc(N[C@H](C)c2cccc(C(F)F)c2F)c2cc(C3(O)CCC(O)CC3)ncc2n1 (single isomer, unassigned) [Compound B-88-P1]",≤ 100 nM
6,"C[C@@H](Nc1ccnc2cnc(C3(O)CCC(N(C)C)CC3)cc12)c1cccc(C(F)F)c1F (single isomer, unassigned) [Compound B-94-P1]",≤ 100 nM
7,"C[C@@H](Nc1ccnc2cnc(C3(O)CCC(N4CCNCC4)CC3)cc12)c1cccc(C(F)F)c1F (single isomer, unassigned) [Compound B-97-P1]",≤ 100 nM
8,COc1cc2nccc(N[C@H](C)c3cccc(C(F)F)c3F)c2cc1OC [Compound A-1],≤ 100 nM
9,COc1cc2nc(C)cc(N[C@H](C)c3cccc(C(F)F)c3F)c2cc1OC [Compound A-2],≤ 100 nM
10,COc1cc2nccc(N[C@H](C)c3cccc(C(F)F)c3F)c2cc1O[C@H]1CCOC1 [Compound A-3],≤ 100 nM
11,COc1cc2nccc(N[C@H](C)c3cccc(C#N)c3C)c2cc1O[C@H]1CCOC1 [Compound A-4],100 to 500 nM
12,COc1cc2nccc(N[C@H](C)c3cccc(C(F)F)c3F)c2cc1O[C@H]1CCNC1 [Compound A-5],≤ 100 nM
13,COc1cc2nccc(N[C@H](C)c3cccc(C(F)F)c3F)c2cc1O[C@H]1CCN(C(C)=O)C1 [Compound A-6],≤ 100 nM
14,COc1cc2nccc(N[C@H](C)c3cccc(C(F)F)c3F)c2cc1O[C@@H]1CCN(C(C)=O)C1 [Compound A-7],100 to 500 nM
15,COc1cc2c(N[C@H](C)c3cccc(C(F)F)c3F)ccnc2cc1OC1CCN(C(C)=O)CC1 [Compound A-16],≤ 100 nM
16,COc1cc2nccc(N[C@H](C)c3cccc(C(F)F)c3F)c2cc1OC1CCNCC1 [Compound A-17],≤ 100 nM
17,COc1cc2nccc(N[C@H](C)c3cccc(C(F)F)c3F)c2cc1OC1CCN(C(C)=O)CC1 [Compound A-18],≤ 100 nM
18,COc1cc2nccc(N[C@H](C)c3cccc(C(F)F)c3F)c2cc1C1=CCN(C(C)=O)CC1 [Compound A-39],≤ 100 nM
19,COc1cc2nccc(N[C@H](C)c3cccc(C(F)F)c3F)c2cc1C1CCN(C(C)=O)CC1 [Compound A-40],≤ 100 nM
20,COc1cc2nccc(N[C@H](C)c3cccc(C(F)F)c3F)c2cc1C1CCN(S(C)(=O)=O)CC1 [Compound A-41],≤ 100 nM
21,COc1cc2nccc(N[C@H](C)c3cccc(C(F)F)c3F)c2cc1C1=CCS(=O)(=O)CC1 [Compound A-45],≤ 100 nM
22,COc1cc2nccc(N[C@H](C)c3cccc(C(F)F)c3F)c2cc1C1CCS(=O)(=O)CC1 [Compound A-46],≤ 100 nM
23,COc1cc2nccc(N[C@H](C)c3cccc(C(F)F)c3F)c2cc1C1(O)CCN(C(C)=O)CC1 [Compound A-58],≤ 100 nM
24,COc1cc2nccc(N[C@H](C)c3cccc(C(F)F)c3F)c2cc1C1(OC)CCN(C(C)=O)CC1 [Compound A-59],≤ 100 nM

# Next, values leading:
row,IC50,Compound
1,≤ 100 nM,C[C@@H](Nc1ccnc2cnc(N3CCN(CCO)CC3)cc12)c1cccc(C(F)F)c1F [Compound B-43]
2,≤ 100 nM,CNC(=O)C1CCN(c2cc3c(N[C@H](C)c4cccc(C(F)F)c4F)ccnc3cn2)C(=O)C1 (stereo partly drawn) [Compound B-55]
3,100 to 500 nM,C[C@@H](Nc1ccnc2cnc(N3CC(O)CC3=O)cc12)c1cccc(C(F)F)c1F (stereo partly drawn) [Compound B-57]
4,≤ 100 nM,C[C@@H](Nc1ccnc2cnc(N3CCC(O)C3=O)cc12)c1cccc(C(F)F)c1F (stereo partly drawn) [Compound B-58]
5,≤ 100 nM,C[C@@H](Nc1ccnc2cnc(N3CCCC3=O)cc12)c1cccc(C(F)F)c1F [Compound B-59]
6,≤ 100 nM,C[C@@H](Nc1ccnc2cnc(N3CCC(N(C)C)CC3)cc12)c1cccc(C(F)F)c1F [Compound B-61]
7,≤ 100 nM,CC(=O)C1CCN(c2cc3c(N[C@H](C)c4cccc(C(F)F)c4F)ccnc3c(C)n2)CC1 [Compound B-66]
8,≤ 100 nM,C[C@@H](Nc1ccnc2cnc(N3C[C@@H](O)C[C@H]3CO)cc12)c1cccc(C(F)F)c1F [Compound B-77]
9,≤ 100 nM,COC(=O)C1CCC(O)(c2cc3c(N[C@H](C)c4cccc(C(F)F)c4F)ccnc3cn2)CC1 (stereo partly drawn) [Compound B-99]
10,≤ 100 nM,C[C@@H](Nc1ccnc2cnc(C(C)(C)O)cc12)c1cccc(C(F)F)c1F [Compound B-105]
11,≤ 100 nM,C[C@@H](Nc1ccnc2cnc(C(C)(O)C3CC3)cc12)c1cccc(C(F)F)c1F (stereo partly drawn) [Compound B-106]

# Test system: p-ERK of PC-9 cells
# Assay: p-ERK HTRF assay in PC-9 cells
# Format: cell-based
# Settings: Homo sapiens, PC-9, 1 h, PC-9 lung cancer cells, 1 hour treatment, read-out: IC50, inhibitory activity on p-ERK of PC-9 cells
# Description: IC50 Values of Compounds Determined by p-ERK HTRF Assay in PC-9 Cells
# Experimental objective: an inhibitory effect of the test compounds on the phosphorylation of PC-9ERK of lung cancer cells at a cellular level was evaluated by detecting the phosphorylation of ERK.
# • PRMI 1640 medium (Invitrogen-11875093) • 0.25% pancreatin (Invitrogen-25200056) • Phosphoric acid buffer salt solution (PBS, pH 7.4) (Invitrogen-10010023) • Double-antibody (PS) (Invitrogen-15140122) • Fetal bovine serum (FBS) (Gibco-10091148) • Trypan blue (Gibco-15250061) • 10-cm culture dish (Corning-430167) • 10-mL pipette (Costar-4488) • Pipettor (Sartorius-17009031) • 15-mL centrifuge tube (Corning-430052) • 50-mL centrifuge tube (Corning-430829) • Cryotube (Thermo-377267) • 1.5-mL EP tube (Axygen-MCT-150-C-S) • Cell incubator (Thermo-371) • Microscope (Olympus-CKX41) • Centrifuge (Flying Pigeon-TDL-80-2B) • Cell counter (Countstar-IC-1000) • Envision (Perkin Elmer) • Spark 10M (TECAN) • Phospho-ERK1/2 (Thr202/Tyr204) Experimental kit (Cisbio, Cat. No. 64AERPEG) • PC-9 cells: RPMI1640+10% FBS+1% PS
# • 1) PBS, 0.25% pancreatin, and a cell culture medium were placed in a water-bath kettle at 37° C. for preheating; • 2) cells were observed under a microscope, a fusion degree was evaluated, and no bacterial and fungi pollution was confirmed; • 3) a culture solution was removed, the cells were washed with 5 mL of PBS and digested with 2 mL of the 0.25% trypsin, the digestion was terminated with 10 mL of the fresh cell culture medium, a culture dish was rinsed, and the cells were transferred to a 15-mL centrifuge tube; • 4) the collected cells were centrifuged at 1,000 rpm for 5 minutes; • 5) after the centrifugation, the supernatant was discarded, the cells were resuspended in 5 mL of the cell culture medium, 20 μL of the resuspended cells were aspirated, and the number and viability of viable cells were recorded; • 6) the cell culture medium was used and the cell density was adjusted (PC-9:10,000 cells/well, and 45 μL per well); • 7) in a 384-well plate, 45 μL of a cell suspension per well was transferred according to an experimental design figure; and • 8) the cells were incubated overnight at 37° C. and 5% CO2.
# • 1) The compounds were diluted from the stock concentration to 10 mM with 100% DMSO (Trametinib was diluted to 1 mM), then 3-fold diluted into 10 points (5 μL of the diluted compounds with the concentration of 10 mM were transferred to 10 μL of the DMSO in an LDV plate), and centrifuged at 1,000 rpm/min for 1 minute; • 2) 5 μL of the diluted compounds of step 1) were transferred to an inter plate 1 containing 45 μL of the cell culture medium (the compounds were diluted from 1,000× to 100×); • 3) 5 μL of the diluted compounds of step 2) were transferred to an inter plate 2 containing 45 μL of the cell culture medium (the compounds were diluted from 100× to 10×); • 4) 5 μL of the compounds were pipetted from the inter plate 2 into a cell culture plate (the compounds were diluted from 10 folds to 1 fold), the final concentrations of the test compounds were 10,000 nM, 3333.33 nM, 1111.11 nM, 370.37 nM, 123.46 nM, 41.15 nM, 13.72 nM, 4.57 nM, 1.52 nM, and […], the solution was centrifuged at 1,000 rpm/min for 1 minute, and the final content of the DMSO was 0.1%; and • 5) the cells were treated in an incubator at 37° C. for 1 hour. […]
row,Compound,IC50
1,C[C@@H](Nc1ccnc2cnc(N3CCN(C(=O)C4CC4)CC3)cc12)c1cccc(C(F)F)c1F [Compound B-25],≤ 300 nM
2,C[C@@H](Nc1ccnc2cnc(N3CCN(C(=O)C4COC4)CC3)cc12)c1cccc(C(F)F)c1F [Compound B-26],≤ 300 nM
3,C[C@@H](Nc1ccnc2cnc(N3CCN(C(=O)C4CCOCC4)CC3)cc12)c1cccc(C(F)F)c1F [Compound B-27],≤ 300 nM
4,C[C@@H](Nc1ccnc2cnc(N3CCn4nccc4C3)cc12)c1cccc(C(F)F)c1F [Compound B-28],300 to 1000 nM
